# According to patent US20160115200A1, “New Use for JNK Inhibitor Molecules for Treatment of Various Diseases” (XIGEN INFLAMMATION LTD., priority 2013, published 2016):
# Square brackets hold non-standard residues; d marks the D form. Peptide text beside a SMILES is read from it.
# How the values were obtained:
# [1] = test system: THP1-PMA-differentiated macrophages; experiment: LPS-induced cytokine and chemokine release in PMA differentiated THP1 macrophages (ELISA); format: cell-based, human
# Source text: The technique used is a Sandwich ELISA, which allows measuring the amount of antigen between two layers of antibodies (i.e. capture and detection antibody). The antigen to be measured must contain at least two antigenic sites capable of binding to antibody, since at least two antibodies act in the sandwich. Either monoclonal or polyclonal antibodies can be used as the capture and detection antibodies in Sandwich ELISA systems. Monoclonal antibodies recognize a single epitope that allows fine detection and quantification of small differences in antigen. A polyclonal is often used as the capture antibody to pull down as much of the antigen as possible.
# In the following the procedure will be set forth describing how cytokine production from human PMA differentiated THP1 cells challenged by LPS for 6 h was induced in order to test the ability of JNK inhibitors of the present invention, in particular of a JNK inhibitor with SEQ ID NO: 172, to reduce stimulation-induced cytokine release. THP1 cells were stimulated ex-vivo by different ligands for the readout of cytokine release. At non toxic doses, JNK inhibitor efficacy is indicated by the decrease of the cytokine levels as compared to non-treated samples and is monitored by ELISA. The toxicity of the compound are evaluated by the reduction of a tretazolium salt (MTS) to formazan, giving a purple colour.
# The cells were counted. The desired number of cells was taken and resuspended in the amount of media necessary to get a dilution of 1'000'000 cells/ml. 100 nM of PMA was added to induce the differentiation of the THP1 from suspension monocytes to adherent macrophages. The cells were plated into the wells in […] medium at plating densities of 100'000 cells/well. After inoculation, the plates were incubated at 37° C., 5% CO2 and 100% relative humidity 3 days to let them differentiate, prior to the addition of experimental drugs.
# The plates were treated with 50 µl of medium or a solution of 4× the final desired drug concentration (0, 100 nM, 1, 3, 10 or 30 µM final for JNK compound or at 0, 10, 100 nM, 1, 3 or […] final for the SP600125 positive control). Following drug addition, the plates were incubated for an additional 1 h at 37° C., 5% CO2 and 100% relative humidity. […]
# After 6 hours, 100 µl of the supernatant were transferred to new 96 well plates. Those plates were sealed and stored at −20° till the analysis by ELISA (e.g. see example 4) of the secretion of the cytokines.
# Analyses of the data are performed as indicated in the ELISA (see example 4). Briefly, for ELISA: Average the triplicate readings for each standard control and each sample. Subtract the average zero standard optical density (O.D). Create a standard curve plotting the log of the cytokine concentration versus the log of the O.D and the best fit line can be determined by regression analysis. If samples have been diluted, the concentration read from the standard curve must be multiplied by the dilution factor. A standard curve should be generated for each set of samples assayed. The outliers data were avoid using Grugg's test. Then the data which weren't in the interval of two times the SD, were discard. […] The independent experiments are pooled (N>3).
# [2] = test system: human whole blood; experiment: Cytokine release in human whole blood stimulated 3 days with PHA-L or CD3/CD28 antibodies; format: cell-based; conditions: human whole blood, 1, 3, 10 μM
# Description: Whole blood from human healthy volunteers was collected using a venipuncture connected to a pre-labeled vacuum tube containing sodium citrate. Tubes are gently mixed by inversion 7-8 times; and are then kept at RT until stimulation. 350 μl of RPMI+P/S were added into 1.2 ml-96-well plate. 10 times concentrated of SEQ ID NO: 172 was prepared in RPMI+P/S (50 μl per well). 50 μl was added into 1.2 ml-96 well plates. 50 μl of whole blood was then added in each well where either medium alone or JNK inhibitor has been previously added. Whole blood was incubated at 37° C., 5% CO2 for 60 min. 50 μl/well of ligands diluted in RPMI+P/S was prepared, corresponding to the final dilution 10 times concentrated. After 60 min of incubation, ligand was added; wells were then mixed by pipetting up and down the blood. Whole blood was incubated for 3 days at 37° C. (wells were mixed by pipetting each well up and down once per day). At the end of incubation, plates were mixed and then centrifuged at 2500 rpm, 4° C. for 15 min in a pre-cooled centrifuge. Cytokine were then measured using standard Elisa kits. Results are expressed as pg/ml of supernatant of the measured cytokine.
# A similar experiment was carried out with slight modifications. In the case of […] stimulation, CD3 antibody was coated at 2 μg/mL in PBS overnight at 4° C. The day of experiment, wells were washed three times with PBS and left in PBS until use at 37° C. CD28 antibody was added 1 h after SEQ ID NO: 172 at final concentration of 2 μg/mL; supernatants were collected after 3 days of stimulation.
structure (smiles),measurement,setting,value
"CC(C)C[C@H](NC(=O)[C@H](CC(N)=O)NC(=O)[C@H](CC(C)C)NC(=O)[C@@H](NC(=O)[C@@H](C)NC(=O)[C@@H]1CCCN1C(=O)[C@H](CCCNC(=N)N)NC(=O)[C@@H](CCCCN)NC(=O)[C@@H]1CCCN1C(=O)[C@H](CCCNC(=N)N)NC(=O)[C@@H](CCCNC(=N)N)NC(=O)[C@H](CCCNC(=N)N)NC(=O)[C@H](CCCNC(=N)N)NC(=O)[C@H](CCC(N)=O)NC(=O)[C@@H](CCCNC(=N)N)NC(=O)[C@H](CCCNC(=N)N)NC(=O)[C@H](CCCCN)NC(=O)[C@H](CCCCN)NC(=O)[C@H](N)CCCNC(=N)N)[C@@H](C)O)C(=O)N[C@H](Cc1ccccc1)C(N)=O [SEQ ID NO: 172, rKKRrQRRrRPkRPaTLNLf] (H-[dR]KKR[dR]QRR[dR]RP[dK]RP[dA]TLNL[dF]-NH2)","LPS-induced IL6 release, potency compared with SEQ ID NO: 197, SEQ ID NO: 45 and SP 600125",[1]; LPS 6 h (10 ng/ml),higher potency
same,"LPS-induced TNFα release, potency compared with SEQ ID NO: 197, SEQ ID NO: 45 and SP 600125",[1]; LPS 6 h (10 ng/ml),higher potency
same,"LPS-induced TNFα release, potency compared with SEQ ID NO: 197 and SEQ ID NO: 196",[1]; PMA differentiated macrophages,higher potency
same,"LPS-induced IL-6 release, potency compared with SEQ ID NO: 197 and SEQ ID NO: 196","[1]; PMA differentiated macrophages, LPS 6 h",higher potency
same,"LPS-induced cytokine and chemokine release (TNF, IL 6, MCP1)","[1]; THP1pma, 6 h, 3 or 10 ng/ml LPS",blocks LPS-induced cytokine and chemokine release
same,CD3/CD28-induced TNF-α release,[2]; CD3+/-CD28 antibodies 2 μg/mL,reduce the CD3/CD28-induced TNF-α release in a dose-dependent manner
same,PHA-L-induced IL-2 release,[2]; PHA-L 5 μg/mL,reduce the PHA-L-induced IL-2 release in a dose-dependent manner
same,PHA-L-induced TNF-α release,[2]; PHA-L 5 μg/mL,reduce the PHA-L-induced TNF-α release in a dose-dependent manner
